Source: patent US7608415B2, “Analysis of intracellular modifications” (Discoverx Corporation, priority 2004, dated 2009)

Test system: IκB-PL
Assay: Homogenous EFC assay of lysates of HeLa/IκB-PL stable cell line stimulated with TNF-α
Type: cell-based
Conditions: increasing time periods
Description: The second experimental example illustrates the sensitivity of the EAstern blot method by following the regulated degradation of a PL-tagged cellular protein, IκB-PL. […] Stimulation of cells with cytokines, such as TNF-α, activates a pathway that leads to phosphorylation, ubiquitination, and subsequent degradation of IκB, which in turn leads to the release and activation of NF-κB. The regulated degradation of IκB is thus an indicator for NF-κB pathway activation.
Cell lysate samples for EAstern blot analysis were prepared from a HeLa/IκB-PL stable cell line (WO 03/021265, filed Aug. 27, 2002) that was cultured and stimulated with TNF-α for increasing time periods. […] Another fraction of each was used for gel electrophoresis and transfer to PVDF blots as described above. To detect IκB-PL, the EAstern blot protocol was adapted for use with the chemiluminescent substrate Beta-Glo (Promega Corp., Cat. No. E4720). In particular, after incubating with EA Reagent, the blot was incubated at RT for 10 min in a solution of Beta-Glo:EACB (1:1, v/v), sandwiched between clear plastic sheets, and then its luminescence detected with a CCD camera.

TNF-α
IκB-PL EFC signal after TNF-α stimulation: time-dependent degradation of IκB-PL signal
